Data set [1] has as its system Influenza A (H1N1) virus FM1 strain. As to the kind of experiment: Mouse pneumonia model infected with influenza A (H1N1) virus FM1 strain (lung index). Format: in vivo, ICR mice. The protocol: ICR mice were taken and randomly divided into: normal control group, model control group, ribavirin control group, compound 4, compound F1, compound F2, and compound F3 according to their weight class, and each drug was given in two dosage groups (10 mice in each group). Except for the normal control group, mice were slightly anesthetized with ether and infected with 15 LD50 H1N1 influenza virus liquid FM1 strain by nasal drops (30 μl per animal). The administration was started on the day of infection at 0.2 ml/10 g by gavage each time once a day for 4 days, and the normal control and model control groups were gavaged with distilled water under the same conditions. The mice were weighed and dissected on Day 5, and the lung was weighed to calculate lung index and lung index inhibition. The results were statistically processed using t-test for comparison between groups.
(§1) ICR mice were taken and randomly divided by weight class: normal control group, model control group, oseltamivir control group, compound 4, compound F4, compound F5, compound 5, and compound 7 according to their weight class, and each drug was given in two dosage groups (10 mice in each group). Except for the normal control group, mice were slightly anesthetized with ether and infected with 15 LD50 H1N1 influenza virus liquid (FM1/PR8 strain) by nasal drops (30 μl per each animal). The administration was started on the day of infection at 0.2 ml/10 g by gavage each time once a day for 4 days, and the normal control and model control groups were gavaged with distilled water under the same conditions. The mice were weighed and dissected on Day 5, and lung was weighed to calculate lung index and lung index inhibition. The results were statistically processed using t-test for comparison between groups.
(§2) ICR mice were taken and randomly divided into 9 groups according to the body weight: a normal control group, model control group, oseltamivir control group, and two dosage groups of Compound 9, Compound 12 and Compound 2, 10 mice in each group. Except the normal control group, mice were slightly anesthetized with ether and infected with 15 LD50 H1N1/PR8 influenza virus liquid by nasal drops at 30 μl per mouse. The administration was started on the day of infection, at 0.2 ml/10 g each time by gavage once a day for 4 days, and the normal control and model control groups were gavaged with distilled water under the same conditions. The mice were weighed and dissected on Day 5, and lungs were weighed to calculate lung index and lung index inhibition. The results were statistically processed using t-test for comparison between groups.

Data set [2] relates to Sendai strain of parainfluenza virus. Format: in vivo.
The subject of data set [3] is Influenza A (H1N1) virus PR8 strain. As to the kind of experiment: Mouse pneumonia model infected with influenza A (H1N1) virus PR8 strain (lung index). Format: in vivo, ICR mice. The protocol:
as §1, §2

In data set [4] the test system is Human Coronavirus 229E (HCoV-229E). As to the kind of experiment: animal or person. Format: in vivo.
The test system of a further data set is human coronavirus OC43. Format: in vivo. The conditions noted are these: Table 6 (Example 17); 90 mg/kg/d gavage for 4 days.
The nature of data set [5]: Acute toxicity test in mice (single gavage, 14-day observation). Format: in vivo. The protocol: Seventy ICR mice, weighing 17-21 g, were randomly divided into 7 groups according to fasting body weight: a normal control group and 6 dose groups of 475, 633, 844, 1125, 1500 and 2000 mg of the test drug (compound 4)/kg, 10 mice in each group, 50/50 male and female. After fasting for about 15 h, each dosing group was administered once by gavage in a volume of 40 ml/kg, and the control group was gavaged with an equal volume of 0.5% sodium carboxymethylcellulose solution once/day, and the animals were observed continuously for 14 days after administration of the drug to observe the death of the animals.
Thirty ICR mice, weighing 17-21 g, were randomly divided into three groups according to their fasting body weight: a normal control group and 2000 mg and 4000 mg of test drug (Compound 12)/kg dose group, 10 mice in each group, 50/50 male and female. After fasting for about 15 h, each dosing group was given the drug once by gavage in a volume of 40 ml/kg, and the control group was given an equal volume of 0.5% sodium carboxymethylcellulose solution by gavage once/day, and the deaths of the animals were observed continuously for 14 days after the administration of the drug.

Setting [6] is: Table 13 (Example 25), 7.5 mg/kg/d gavage for 4 days.
Setting [7] is: Table 13 (Example 25), 15 mg/kg/d gavage for 4 days.
The mark [8] stands for this setting: Table 11 (Example 24), 7.5 mg/kg/d gavage for 4 days.
Setting [9] is: Table 11 (Example 24), 15 mg/kg/d gavage for 4 days.
Setting [10] is: Table 12 (Example 25), 7.5 mg/kg/d gavage for 4 days.
The mark [11] stands for this setting: Table 12 (Example 25), 15 mg/kg/d gavage for 4 days.
Setting [12] is: Table 7 (Example 18), 82.5 mg/kg/d gavage for 4 days.
Setting [13] is: Table 11 (Example 24), 82.5 mg/kg/d gavage for 4 days.
[14] abbreviates: Table 3 (Example 14), 27.5 mg/kg gavage once a day for 4 days.

Read-outs that look alike come from different tables or passages of the source.

Consider `COc1ccc(-c2coc3cc(OCCNC4CC4)ccc3c2=O)cc1` [Compound 2], for which the inhibition rate % in data set [1] (setting [6]) is 26.60%; in data set [1] (setting [7]), 72.90%; in data set [2] (setting [8]), −18.32%; in data set [2] (setting [9]), 3.27%; in data set [3] (setting [10]) it was 99.05%; in data set [3] (setting [11]), 60.90%. In addition, the lung index is listed as 0.77 ± 0.074 Lung weight * 100/body weight in data set [1] (setting [6]); 0.73 ± 0.060 Lung weight * 100/body weight in data set [1] (setting [7]); 0.86 ± 0.04 Lung weight * 100/body weight in data set [2] (setting [8]); 0.84 ± 0.07 Lung weight * 100/body weight in data set [2] (setting [9]); 0.70 ± 0.110 Lung weight * 100/body weight in data set [3] (setting [10]); 0.74 ± 0.091 Lung weight * 100/body weight in data set [3] (setting [11]).

With `CN(CCOc1ccc2c(=O)c(-c3ccccc3)coc2c1)C1CC1` [Compound 9], the inhibition rate % in data set [1] (setting [6]) is given as 79.57%; in data set [1] (setting [7]), 84.63%; in data set [2] (setting [8]), 40.51%; in data set [2] (setting [9]) it was 55.59%; in data set [3] (setting [10]), 58.71%; in data set [3] (setting [11]) it was 91.64%. For the same compound, the lung index was 0.72 ± 0.069 Lung weight * 100/body weight in data set [1] (setting [6]); 0.71 ± 0.052 Lung weight * 100/body weight in data set [1] (setting [7]); 0.79 ± 0.05 Lung weight * 100/body weight in data set [2] (setting [8]); 0.77 ± 0.05 Lung weight * 100/body weight in data set [2] (setting [9]); 0.81 ± 0.10 g lung weight × 100/g body weight in data set [4] (Table 10 (Example 23), 7.5 mg/kg/d gavage for 4 days); 0.74 ± 0.046 Lung weight * 100/body weight in data set [3] (setting [10]). Also, the lung index in data set [3] (setting [11]) was 0.71 ± 0.060 Lung weight * 100/body weight. Besides, in data set [4] (Human coronavirus 229E, in Mus musculus, po, 96 h, Table 10 (Example 23), 7.5 mg/kg/d gavage for 4 days, read-out: inhibition rate (%)), the inhibition in vivo at 7.5 mg/kg/day stood at 46.5%.

As to `NC(=O)c1ncn([C@@H]2O[C@H](CO)[C@@H](O)[C@H]2O)n1` [Ribavirin, ribavirin, reference compound], the inhibition in vivo at 82.5 mg/kg in data set [1] (Influenza A virus, H1N1, po, 96 h, Table 1 (Example 13), 82.5 mg/kg gavage once a day for 4 days, read-out: inhibition rate (%)) came to 49.6%. Further, the lung index is 0.96 ± 0.16 in data set [1] (Table 1 (Example 13), 82.5 mg/kg gavage once a day for 4 days); 0.70 ± 0.03 lung weight/100 g body weight in data set [2] (setting [12]); 0.77 ± 0.04 Lung weight * 100/body weight in data set [2] (setting [13]); 0.84 ± 0.10 in data set [3] (setting [14]). Also, the “inhibition rate %” value was 42.06% in data set [2] (setting [12]), 57.66% in data set [2] (setting [13]) and 58.89% in data set [3] (setting [14]).

With `CCN(CC)CCCC(C)Nc1ccnc2cc(Cl)ccc12` (centres unmarked) [Chloroquine, chloroquine phosphate, reference compound], the inhibition in vivo at 90 mg/kg/day turned out to be 31.3% in data set [4] (Human coronavirus 229E, in Mus musculus, po, 96 h, read-out: inhibition rate (%), Table 4 (Example 15), 90 mg/kg/d gavage for 4 days); 56.2% in data set [4] (Human coronavirus 229E, in Mus musculus, po, 96 h, read-out: inhibition rate (%), Table 5 (Example 16), 90 mg/kg/d gavage for 4 days); 52.9% in data set [4] (Human coronavirus 229E, in Mus musculus, po, 96 h, read-out: inhibition rate (%), Table 10 (Example 23), 90 mg/kg/d gavage for 4 days); 62.8% in data set [4] (Human coronavirus 229E, in Mus musculus, po, 96 h, read-out: inhibition rate (%), Table 14 (Example 26), 90 mg/kg/d gavage for 4 days). In addition, the lung index in data set [4] (Table 4 (Example 15), 90 mg/kg/d gavage for 4 days) is reported as 0.78 ± 0.04 g lung weight × 100/g body weight; in data set [4] (Table 5 (Example 16), 90 mg/kg/d gavage for 4 days), 0.70 ± 0.04 g lung weight × 100/g body weight; in data set [4] (Table 10 (Example 23), 90 mg/kg/d gavage for 4 days) it was 0.80 ± 0.02 g lung weight × 100/g body weight; in data set [4] (Table 14 (Example 26), 90 mg/kg/d gavage for 4 days) it was 0.83 ± 0.05 g lung weight × 100/g body weight; in the data set on human coronavirus OC43 it was 0.80 ± 0.05 g lung weight × 100/g body weight. Also, the “inhibition rate %” value with human coronavirus OC43 is 42.72%.

Consider `CC(C)N(CCOc1ccc2c(=O)c(-c3ccccc3)coc2c1)C1CC1` [Compound 12], for which the inhibition rate % was determined as 70.82% in data set [1] (setting [6]); 93.59% in data set [1] (setting [7]); 57.49% in data set [2] (setting [8]); 61.91% in data set [2] (setting [9]); 63.78% in data set [3] (setting [10]); 76.54% in data set [3] (setting [11]). Moreover, the lung index in data set [1] (setting [6]) is 0.73 ± 0.070 Lung weight * 100/body weight; in data set [1] (setting [7]), 0.71 ± 0.042 Lung weight * 100/body weight; in data set [2] (setting [8]) it was 0.77 ± 0.04 Lung weight * 100/body weight; in data set [2] (setting [9]), 0.76 ± 0.03 Lung weight * 100/body weight; in data set [4] (Table 14 (Example 26), 7.5 mg/kg/d gavage for 4 days), 0.86 ± 0.04 g lung weight × 100/g body weight; in data set [4] (Table 14 (Example 26), 15 mg/kg/d gavage for 4 days) it was 0.82 ± 0.07 g lung weight × 100/g body weight. Besides, the lung index in data set [3] (setting [10]) was 0.74 ± 0.091 Lung weight * 100/body weight; in data set [3] (setting [11]), 0.72 ± 0.076 Lung weight * 100/body weight. Besides, the inhibition in vivo at 7.5 mg/kg/day in data set [4] (Human coronavirus 229E, in Mus musculus, po, 96 h, Table 14 (Example 26), 7.5 mg/kg/d gavage for 4 days, read-out: inhibition rate (%)) stood at 39.8%. Moreover, the inhibition in vivo at 15 mg/kg/day in data set [4] (Human coronavirus 229E, in Mus musculus, po, 96 h, Table 14 (Example 26), 15 mg/kg/d gavage for 4 days, read-out: inhibition rate (%)) is 68.4%. Moreover, the animal deaths entry in data set [5] (2000 and 4000 mg of the drug/kg single gavage, 14 days observation) was “No animals died”. Moreover, the “maximum concentration that could be administered by gavage, with no death of the animals” value in data set [5] (acute toxicity, mice) was 4000 mg/kg.

The record behind these values is patent publication US20250154121A1, “CYCLIC(ALKYL)(AMINO)ALKOXY-SUBSTITUTED ARYL-PYRONE COMPOUND AND USE THEREOF” (priority 2022, published 2025).
